Patent publication US10633419B2, “Immunomodulators” (BRISTOL-MYERS SQUIBB COMPANY, priority 2014, dated 2020)
pIC50: −log10 of the molar value. Starred links: 1 amine or outer side, 2 acyl side, 3 side chain; linkers in the order of their positions; H or OH if unused. Positions of bridges follow the written chain, without caps; N, C: chain ends. Non-standard residues stand in square brackets, D forms with d. Residues, ends and D or L forms follow the SMILES beside them. Groups on a side chain read outwards from the residue. *: point of attachment. X6 = O=C(O)CCCCCCCCCCCCCCCCC(=O)N[C@@H](CCC(=O)NCCCOCCOCCOCCCN*)C(=O)O; X11 = O=C(O)CCCCCCCCCCCCC(=O)N[C@@H](CCC(=O)NCCCOCCOCCOCCCN*)C(=O)O; Trp(1-CH2COOH) = N[C@@H](Cc1cn(CC(=O)O)c2ccccc12)C(=O)O; X14 = O=C(O)CCCCCCCCCCNC(=O)CCC(=O)NCCCOCCOCCOCCCN*; X9 = O=C(O)CCCCCCCCCCCCCCCCC(=O)N[C@@H](CCN*)C(=O)O; C18 diacid = O=C(O)CCCCCCCCCCCCCCCCC(=O)*; Phe(4-F) = N[C@@H](Cc1ccc(F)cc1)C(=O)O; γGlu = O=C(O)[C@H](CCC(=O)[*:2])N[*:1]; βAsp = O=C(O)[C@H](CC(=O)[*:2])N[*:1]; Ethylenediamine = C(CN[*:2])N[*:1]; Hyp = O=C(O)[C@@H]1C[C@@H](O)CN1; Myristoyl = CCCCCCCCCCCCCC(=O)*; NMeNle = CCCC[C@H](NC)C(=O)O; Pip = O=C(O)[C@@H]1CCCCN1; NMeA = CN[C@@H](C)C(=O)O; Pra = C#CC[C@H](N)C(=O)O; Aun = NCCCCCCCCCCC(=O)O; Dab = NCC[C@H](N)C(=O)O; Dap = NC[C@H](N)C(=O)O; AEA = NCCOCC(=O)O

Target: T1, PD-L1 (Homo sapiens, UniProt Q9NZQ7)
T1 construct: hPDL1(19-239)-TVMV-His; made in house; host or cells: HEK293T
Test: PD-1/PD-L1 Homogenous Time-Resolved Fluorescence (HTRF) binding assay (PD-1-Ig/PD-L1-His)
Details: inhibition of PD-1-Ig binding to PD-L1-TVMV-His; value given as number; read-out: HTRF IC50
Excerpt: The ability of the macrocyclic peptides of the present disclosure to bind to PD-L1 was investigated using a PD-1/PD-L1 Homogenous Time-Resolved Fluorescence (HTRF) binding assay.
Homogenous Time-Resolved Fluorescence (HTRF) Assays of Binding of Soluble PD-1 to Soluble PD-L1. Soluble PD-1 and soluble PD-L1 refers to proteins with carboxyl-end truncations that remove the transmembrane-spanning regions and are fused to heterologous sequences, specifically the Fc portion of the human immunoglobuling G sequence (Ig) or the hexahistidine epitope tag (His). All binding studies were performed in an HTRF assay buffer consisting of dPBS supplemented with 0.1% (w/v) bovine serum albumin and 0.05% (v/v) Tween-20. For the PD-1-Ig/PD-L1-His binding assay, inhibitors were pre-incubated with PD-L1-His (10 nM final) for 15 m in 4 μl of assay buffer, followed by addition of PD-1-Ig (20 nM final) in 1 μl of assay buffer and further incubation for 15m. PD-L1 fusion proteins from either human, cynomologous macaques, mouse, or other species were used. HTRF detection was achieved using europium crypate-labeled anti-Ig monoclonal antibody (1 nM final) and allophycocyanin (APC) labeled anti-His monoclonal antibody (20 nM final). Antibodies were diluted in HTRF detection buffer and 5 μl was dispensed on top of binding reaction. The reaction was allowed to equilibrate for 30 minutes and signal (665 nm/620 nm ratio) was obtained using an EnVision fluorometer. Additional binding assays were established between PD-1-Ig/PD-L2-His (20 and 5 nM, respectively), CD80-His/PD-L1-Ig (100 and 10 nM, respectively) and CD80-His/CTLA4-Ig (10 and 5 nM, respectively). Binding/competition studies between biotinylated Compound No. 71 and human PD-L1-His were performed as follows. Macrocyclic peptide inhibitors were pre-incubated with PD-L1-His (10 nM final) for 60 minutes in 4 μl of assay buffer followed by addition of biotinylated Compound No. 71 (0.5 nM final) in 1 μl of assay buffer. Binding was allowed to equilibrate for 30 minutes followed by addition of europium crypated labeled Streptavidin (2.5 pM final) and APC-labeled anti-His (20 nM final) in 5 μl of HTRF buffer. The reaction was allowed to equilibrate for 30m and signal (665 nm/620 nm ratio) was obtained using an EnVision fluorometer.
Recombinant Proteins. Carboxyl-truncated human PD-1 (amino acids 25-167) with a C-terminal human Ig epitope tag [hPD-1 (25-167)-3S-IG] and human PD-L1 (amino acids 18-239) with a C-terminal His epitope tag [hPD-L1(19-239)-tobacco vein mottling virus protease cleavage site (TVMV)-His] were expressed in HEK293T cells and purified sequentially by recombinant Protein A affinity chromatography and size exclusion chromatography. Human PD-L2-His (Sino Biologicals), CD80-His (Sino Biologicals), CTLA4-Ig (RnD Systems) were all obtained through commercial sources.

T1 sequence (Q9NZQ7 with tags, fused parts or gaps): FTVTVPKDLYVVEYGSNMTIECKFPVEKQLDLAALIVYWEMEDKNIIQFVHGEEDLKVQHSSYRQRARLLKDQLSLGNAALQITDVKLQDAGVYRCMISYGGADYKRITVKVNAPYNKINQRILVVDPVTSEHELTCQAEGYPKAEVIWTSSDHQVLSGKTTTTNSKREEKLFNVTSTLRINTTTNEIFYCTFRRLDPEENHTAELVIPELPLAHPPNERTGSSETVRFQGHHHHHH

pIC50	Compound
7.72	CCCC[C@H]1C(=O)N(C)[C@@H](CCCC)C(=O)N[C@@H](CC(C)C)C(=O)N[C@H](C(=O)NCCCOCCOCCOCCCNC(=O)CCC(=O)NCCCCCCCCCCC(=O)O)CSCC(=O)N[C@@H](Cc2ccc(O)cc2)C(=O)N(C)[C@@H](C)C(=O)N[C@@H](CC(N)=O)C(=O)N2CCC[C@H]2C(=O)N[C@@H](CN)C(=O)N[C@@H](CCC(N)=O)C(=O)N2C[C@H](O)C[C@H]2C(=O)N[C@@H](Cc2c[nH]c3ccccc23)C(=O)N[C@@H](CO)C(=O)N[C@@H](Cc2cn(CC(=O)O)c3ccccc23)C(=O)N1C [Example 11086] ({CH2CO}-Y[NMeA]NP[Dap]Q[Hyp]WS[Trp(1-CH2COOH)][NMeNle][NMeNle]LC-X14; thioether N-14)
8.07	CCCCCCCCCCCCCCCC(=O)N[C@@H](CCn1cc(C[C@H](NC(=O)CNC(=O)[C@@H]2CSCC(=O)N[C@@H](Cc3ccc(O)cc3)C(=O)N(C)[C@@H](C)C(=O)N[C@@H](CC(=O)O)C(=O)N3CCC[C@H]3C(=O)N[C@@H](Cc3c[nH]cn3)C(=O)N[C@@H](CCCCN)C(=O)N3C[C@H](O)C[C@H]3C(=O)N[C@@H](Cc3c[nH]c4ccccc34)C(=O)N[C@@H](CCCCN)C(=O)N[C@@H](Cc3cn(CC(=O)O)c4ccccc34)C(=O)N(C)[C@@H](CCCC)C(=O)N(C)[C@@H](CCCC)C(=O)N[C@@H](CCC(=O)O)C(=O)N2)C(N)=O)nn1)C(=O)O [Example 14072]

Same assay, conditions: inhibition of PD-1-Ig binding to PD-L1-TVMV-His; value given as range class; read-out: HTRF IC50

pIC50	Compound
7.00 to 8.00	CCCC[C@H]1C(=O)N(C)[C@@H](CCCC)C(=O)N[C@@H](CC(C)C)C(=O)N[C@H](C(=O)NCC(=O)N[C@@H](CC(=O)NCCNC(=O)CC[C@H](NC(=O)CCCCCCCCCCCCCCCCC(=O)O)C(=O)O)C(=O)O)CSCC(=O)N[C@@H](Cc2ccc(F)cc2)C(=O)N2CCCC[C@H]2C(=O)N[C@@H](CC(=O)O)C(=O)N2CCC[C@H]2C(=O)N[C@@H](CN)C(=O)N[C@@H](CC(C)C)C(=O)N2C[C@H](O)C[C@H]2C(=O)N[C@@H](Cc2c[nH]c3ccccc23)C(=O)N[C@@H](CCN)C(=O)N[C@@H](Cc2cn(CC(=O)O)c3ccccc23)C(=O)N1C [Example 14124] ({CH2CO}-[Phe(4-F)][Pip]DP[Dap]L[Hyp]W[Dab][Trp(1-CH2COOH)][NMeNle][NMeNle]LCGD([Ethylenediamine-γGlu-C18 diacid])-OH; thioether N-14)
7.00 to 8.00	CCCCCCCCCCCCCCCC(=O)N[C@@H](CCn1cc(C[C@H](NC(=O)CNC(=O)[C@@H]2CSCC(=O)N[C@@H](Cc3ccc(O)cc3)C(=O)N(C)[C@@H](C)C(=O)N[C@@H](CC(=O)O)C(=O)N3CCC[C@H]3C(=O)N[C@@H](Cc3c[nH]cn3)C(=O)N[C@@H](CCC(N)=O)C(=O)N3C[C@H](O)C[C@H]3C(=O)N[C@@H](Cc3c[nH]c4ccccc34)C(=O)N[C@@H](CO)C(=O)N[C@@H](Cc3c[nH]c4ccccc34)C(=O)N(C)[C@@H](CCCC)C(=O)N(C)[C@@H](CCCC)C(=O)N[C@@H](CCC(=O)O)C(=O)N2)C(=O)NCC(N)=O)nn1)C(=O)O [Example 14062]

Further lines, the molecule ahead of its results:

Compound	pIC50
CCCC[C@H]1C(=O)N(C)[C@@H](CCCC)C(=O)N[C@@H](CC(C)C)C(=O)N[C@H](C(=O)NCC(=O)NCC(=O)NCC(=O)NCCCCCCCCCCC(=O)O)CSCC(=O)N[C@@H](Cc2ccc(O)cc2)C(=O)N(C)[C@@H](C)C(=O)N[C@@H](CC(N)=O)C(=O)N2CCC[C@H]2C(=O)N[C@@H](Cc2cnc[nH]2)C(=O)N[C@@H](CCC(=O)O)C(=O)N2C[C@H](O)C[C@H]2C(=O)N[C@@H](Cc2c[nH]c3ccccc23)C(=O)N[C@@H](CCN)C(=O)N[C@@H](Cc2cn(CC(=O)O)c3ccccc23)C(=O)N1C [Example 11079] ({CH2CO}-Y[NMeA]NPHE[Hyp]W[Dab][Trp(1-CH2COOH)][NMeNle][NMeNle]LCGGG[Aun]-OH; thioether N-14)	7.00 to 8.00
C#CC[C@H](NC(=O)CNC(=O)[C@@H]1CSCC(=O)N[C@@H](Cc2ccc(O)cc2)C(=O)N(C)[C@@H](C)C(=O)N[C@@H](CC(N)=O)C(=O)N2CCC[C@H]2C(=O)N[C@@H](CN)C(=O)N[C@@H](CC(C)C)C(=O)N2C[C@H](O)C[C@H]2C(=O)N[C@@H](Cc2c[nH]c3ccccc23)C(=O)N[C@@H](CCN)C(=O)N[C@@H](Cc2cn(CC(=O)O)c3ccccc23)C(=O)N(C)[C@@H](CCCC)C(=O)N(C)[C@@H](CCCC)C(=O)N[C@@H](CC(C)C)C(=O)N1)C(=O)N[C@@H](CCC(=O)NCCCOCCOCCOCCCNC(=O)CC[C@H](NC(=O)CCCCCCCCCCCCCCCCC(=O)O)C(=O)O)C(=O)O [Example 11267] ({CH2CO}-Y[NMeA]NP[Dap]L[Hyp]W[Dab][Trp(1-CH2COOH)][NMeNle][NMeNle]LCG[Pra]E(X6)-OH; thioether N-14)	7.00 to 8.00
CCCCCCCCCCCCCC(=O)NCCCC[C@H](NC(=O)[C@H](CC(=O)O)NC(=O)CNC(=O)[C@@H]1CSCC(=O)N[C@@H](Cc2ccc(O)cc2)C(=O)N(C)[C@@H](C)C(=O)N[C@@H](CC(=O)O)C(=O)N2CCC[C@H]2C(=O)N[C@@H](Cc2cnc[nH]2)C(=O)N[C@@H](CC(C)C)C(=O)N2C[C@H](O)C[C@H]2C(=O)N[C@@H](Cc2c[nH]c3ccccc23)C(=O)N[C@@H](CO)C(=O)N[C@@H](Cc2c[nH]c3ccccc23)C(=O)N(C)[C@@H](CCCC)C(=O)N(C)[C@@H](CCCC)C(=O)N[C@@H](CCCNC(=N)N)C(=O)N1)C(N)=O [Example 11016] ({CH2CO}-Y[NMeA]DPHL[Hyp]WSW[NMeNle][NMeNle]RCGDK(Myristoyl)-NH2; thioether N-14)	7.00 to 8.00
CCCC[C@H]1C(=O)N(C)[C@@H](CCCC)C(=O)N[C@@H](CC(C)C)C(=O)N[C@H](C(=O)NCC(=O)N[C@@H](CC(=O)NCCOCC(=O)NCC[C@H](NC(=O)CCCCCCCCCCCCCCCCC(=O)O)C(=O)O)C(=O)O)CSCC(=O)N[C@@H](Cc2ccc(O)cc2)C(=O)N2CCCC[C@H]2C(=O)N[C@@H](CC(N)=O)C(=O)N2CCC[C@H]2C(=O)N[C@@H](CN)C(=O)N[C@@H](CC(C)C)C(=O)N2C[C@H](O)C[C@H]2C(=O)N[C@@H](Cc2c[nH]c3ccccc23)C(=O)N[C@@H](CCN)C(=O)N[C@@H](Cc2cn(CC(=O)O)c3ccccc23)C(=O)N1C [Example 13159] ({CH2CO}-Y[Pip]NP[Dap]L[Hyp]W[Dab][Trp(1-CH2COOH)][NMeNle][NMeNle]LCG[βAsp][AEA]-X9; thioether N-14)	8.00 to 9.52
CCCC[C@H]1C(=O)N(C)[C@@H](CCCC)C(=O)N[C@@H](CCCNC(=N)N)C(=O)N[C@H](C(=O)NCC(=O)N[C@@H](CCn2cc(CNC(=O)COCCOCCOC)nn2)C(N)=O)CSCC(=O)N[C@@H](Cc2ccc(O)cc2)C(=O)N(C)[C@@H](C)C(=O)N[C@@H](CC(N)=O)C(=O)N2CCC[C@H]2C(=O)N[C@@H](CN)C(=O)N[C@@H](CC(C)C)C(=O)N2C[C@H](O)C[C@H]2C(=O)N[C@@H](Cc2c[nH]c3ccccc23)C(=O)N[C@@H](CO)C(=O)N[C@@H](Cc2csc3ccccc23)C(=O)N1C [Example 13052]	7.00 to 8.00
CCCC[C@H]1C(=O)N(C)[C@@H](CCCC)C(=O)N[C@@H](CC(C)C)C(=O)N[C@H](C(=O)NCC(=O)N[C@@H](CCC(=O)O)C(=O)NCCCOCCOCCOCCCNC(=O)CC[C@H](NC(=O)CCCCCCCCCCCCC(=O)O)C(=O)O)CSCC(=O)N[C@@H](Cc2ccc(O)cc2)C(=O)N(C)[C@@H](C)C(=O)N[C@@H](CC(N)=O)C(=O)N2CCC[C@H]2C(=O)N[C@@H](CN)C(=O)N[C@@H](CC(C)C)C(=O)N2C[C@H](O)C[C@H]2C(=O)N[C@@H](Cc2c[nH]c3ccccc23)C(=O)N[C@@H](CCN)C(=O)N[C@@H](Cc2cn(CC(=O)O)c3ccccc23)C(=O)N1C [Example 11253] ({CH2CO}-Y[NMeA]NP[Dap]L[Hyp]W[Dab][Trp(1-CH2COOH)][NMeNle][NMeNle]LCGE-X11; thioether N-14)	8.00 to 9.52
